In ChEMBL document CHEMBL1201862, “PubChem BioAssay data set” (2004):
Several values for one entry are separate records, joined by “and”; a condition that tells them apart may be missing. Equal values may be shown once.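 Results reflect a 48-hour exposure of cells in 96-well plates to compound at five concentrations. At the GI50, growth is halved.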 Activity calls are given as the source filed them. Cut-off read from the data, not from the text of the source: active = GI50 up to about 1.1 µM and inactive = higher.

What was measured:
Assay in all cases: NCI anticancer screen, dose series, 48 h
HCC 2998 = system: HCC 2998
HOP-62 = system: HOP-62
HT-29 = system: HT-29
KM12 = system: KM12
MOLT-4 = system: MOLT-4
NCI-H460 = system: NCI-H460
OVCAR-4 = system: OVCAR-4
OVCAR-5 = system: OVCAR-5
OVCAR-8 = system: OVCAR-8
RPMI-8226 = system: RPMI-8226
SF-295 = system: SF-295
SK-MEL-2 = system: SK-MEL-2
SK-MEL-5 = system: SK-MEL-5
SN12C = system: SN12C
SNB-19 = system: SNB-19
SR = system: SR
TK-10 = system: TK-10

Measured: GI50

C=CCSc1ncnc2c1ncn2C1OC(CO)C(O)C1O (stereo not given)
inactive: HCC 2998 24.3 µM | HOP-62 35.1 µM | HT-29 32.6 µM | KM12 > 100 µM | MOLT-4 3.58 µM | NCI-H460 38.9 µM | OVCAR-4 > 100 µM | OVCAR-5 60.5 µM | OVCAR-8 3.85 µM | RPMI-8226 32.5 µM | SF-295 87.5 µM | SK-MEL-2 58.7 µM | SK-MEL-5 > 100 µM | SN12C 6.31 µM | SNB-19 > 100 µM | SR > 100 µM | TK-10 68.7 µM

COc1cc(/C=C/C(=O)c2sc(-n3nc(-c4ccccc4)cc3-c3ccccc3)nc2C)ccc1O
inactive: HCC 2998 > 100 µM | HOP-62 > 100 µM | KM12 15.5 µM | MOLT-4 17.5 µM | NCI-H460 > 100 µM | OVCAR-5 > 100 µM | OVCAR-8 > 100 µM | RPMI-8226 > 100 µM | SF-295 57 µM | SK-MEL-2 > 100 µM | SK-MEL-5 55.2 µM | SN12C > 100 µM | TK-10 > 100 µM

COc1cc(OC)c2c(=O)c3cccc([N+](=O)[O-])c3n(C)c2c1
inactive: HT-29 > 100 µM | KM12 > 100 µM | MOLT-4 47 µM | OVCAR-4 > 100 µM | OVCAR-8 > 100 µM | RPMI-8226 > 100 µM | SF-295 > 100 µM | SK-MEL-2 > 100 µM | SK-MEL-5 > 100 µM | SN12C 95.3 µM | SNB-19 > 100 µM | TK-10 > 100 µM

O=C1OC(O)c2cc3c(cc21)OCO3 (stereo not given)
inactive: HCC 2998 > 100 µM | HOP-62 > 100 µM | HT-29 > 100 µM | KM12 > 100 µM | MOLT-4 > 100 µM | NCI-H460 > 100 µM | OVCAR-4 > 100 µM | OVCAR-8 > 100 µM | RPMI-8226 > 100 µM | SF-295 > 100 µM | SK-MEL-2 > 100 µM | SK-MEL-5 > 100 µM | SN12C > 100 µM | SNB-19 > 100 µM | TK-10 > 100 µM

CCOC(=O)c1cc2c3c(c(O)c(OC)c2s1)N(C(=O)c1cc2c4c(c(O)c(OC)c2s1)N(C(C)=O)CC4)CC3
inactive: HCC 2998 > 100 µM | HOP-62 35.6 µM | HT-29 > 100 µM | KM12 > 100 µM | NCI-H460 > 100 µM | OVCAR-4 71.6 µM | OVCAR-5 > 100 µM | OVCAR-8 72.8 µM | RPMI-8226 > 100 µM | SF-295 54.3 µM | SK-MEL-5 85.1 µM | SN12C > 100 µM | SNB-19 > 100 µM | TK-10 > 100 µM

COc1cc(CC(=O)c2cc3c(cc2-c2ccccc2)OCO3)cc(OC)c1OC
inactive: HCC 2998 > 100 µM | HOP-62 79.6 µM | HT-29 > 100 µM | KM12 > 100 µM | MOLT-4 17.7 µM | NCI-H460 67.9 µM | OVCAR-4 27.1 µM | OVCAR-5 > 100 µM | OVCAR-8 58.7 µM | SF-295 34.5 µM | SK-MEL-2 44.2 µM | SK-MEL-5 6.62 µM | SN12C 68.7 µM | SNB-19 72.3 µM | SR 19.1 µM | TK-10 32.9 µM

Cc1ccc(-c2cc(-c3ccco3)nc(N)n2)o1
inactive: HOP-62 > 100 µM | HT-29 > 100 µM | KM12 > 100 µM | MOLT-4 > 100 µM | NCI-H460 > 100 µM | OVCAR-4 > 100 µM | OVCAR-5 > 100 µM | OVCAR-8 > 100 µM | RPMI-8226 > 100 µM | SF-295 > 100 µM | SK-MEL-2 > 100 µM | SK-MEL-5 > 100 µM | SN12C > 100 µM | SNB-19 > 100 µM | SR > 100 µM | TK-10 > 100 µM

Cc1c(C(=O)/C=C/C=C/c2ccccc2)[n+]([O-])c2ccccc2[n+]1[O-]
inactive: HCC 2998 18.9 µM | HOP-62 25.3 µM | HT-29 > 10 µM | KM12 16.8 µM | MOLT-4 40.5 µM | NCI-H460 18.8 µM | OVCAR-4 31.2 µM | OVCAR-5 66.1 µM | OVCAR-8 42.8 µM | RPMI-8226 > 10 µM | SF-295 29.2 µM | SK-MEL-2 31.7 µM | SK-MEL-5 19.9 µM | SN12C 23.5 µM | SNB-19 35.5 µM | TK-10 50.8 µM

CCOC(=O)C/N=c1\nc(SC)sc2c(C(=O)OCC)nc(Sc3ccccc3)n12
inactive: HCC 2998 40.1 µM | HOP-62 52.1 µM | HT-29 > 100 µM | KM12 > 100 µM | OVCAR-4 41.2 µM | OVCAR-5 > 100 µM | OVCAR-8 39.3 µM | RPMI-8226 8.41 µM | SK-MEL-2 58.9 µM | SK-MEL-5 > 100 µM | SN12C 91.4 µM | SR 4.74 µM | TK-10 25.9 µM

Nc1nc2c3nc(Nc4ccccc4)sc3nc(=S)n2c2sc(Nc3ccccc3)nc12
inactive: HCC 2998 22.2 µM | HOP-62 > 100 µM | HT-29 > 100 µM | OVCAR-4 > 100 µM | OVCAR-8 15.2 µM | SF-295 > 100 µM | SK-MEL-5 > 100 µM | SN12C 65.5 µM | SNB-19 40.1 µM | SR 5.19 µM

CC1=C(C)C(=O)c2c(cc3c4ccccc4ccn23)C1=O
inactive: HOP-62 > 100 µM | HT-29 > 100 µM | KM12 > 100 µM | MOLT-4 > 100 µM | NCI-H460 > 100 µM | OVCAR-8 > 100 µM | RPMI-8226 > 100 µM | SF-295 > 100 µM | SK-MEL-2 > 100 µM | SK-MEL-5 > 100 µM | SN12C > 100 µM | SNB-19 > 100 µM | TK-10 > 100 µM

CCCCC(C(=O)C(=O)Nc1ccccc1CC)C(=O)C(C)C (stereo not given)
inactive: HCC 2998 > 100 µM | HT-29 > 100 µM | KM12 > 100 µM | MOLT-4 > 100 µM | NCI-H460 > 100 µM | OVCAR-4 > 100 µM | OVCAR-5 > 100 µM | OVCAR-8 > 100 µM | RPMI-8226 > 100 µM | SF-295 > 100 µM | SK-MEL-2 > 100 µM | SK-MEL-5 > 100 µM | SN12C > 100 µM | SNB-19 > 100 µM | TK-10 > 100 µM

OC(c1ccccc1)(c1ccccc1)c1ccccn1
inactive: HCC 2998 > 100 µM | HOP-62 > 100 µM | HT-29 > 100 µM | KM12 > 100 µM | MOLT-4 > 100 µM | NCI-H460 > 100 µM | OVCAR-4 > 100 µM | OVCAR-5 > 100 µM | OVCAR-8 > 100 µM | RPMI-8226 95.5 µM | SF-295 > 100 µM and 80.5 µM | SK-MEL-2 > 100 µM | SK-MEL-5 > 100 µM | SN12C > 100 µM | SNB-19 > 100 µM | SR > 100 µM | TK-10 > 100 µM

O=C(COc1ccc(/C=C/C(=O)c2ccc(Cl)cc2)cc1)Nc1c(Cl)cccc1Cl
inactive: HOP-62 > 100 µM | HT-29 > 100 µM | KM12 67.5 µM | MOLT-4 10.7 µM | NCI-H460 > 100 µM | OVCAR-4 94 µM | OVCAR-5 40.8 µM | OVCAR-8 51.4 µM | RPMI-8226 30.2 µM | SF-295 68.7 µM | SK-MEL-5 48.3 µM | SN12C > 100 µM | SNB-19 > 100 µM | SR 50 µM | TK-10 > 100 µM

[O-][S+](Cc1ccccc1)c1nc2ccccc2nc1-c1cccs1 (stereo not given)
inactive: HCC 2998 12.4 µM | HOP-62 19.2 µM | HT-29 11.7 µM | KM12 16 µM | MOLT-4 3.53 µM | NCI-H460 20 µM | OVCAR-4 5.78 µM | OVCAR-5 17.6 µM | OVCAR-8 13.7 µM | RPMI-8226 17.9 µM | SF-295 24.7 µM | SK-MEL-2 9.66 µM | SK-MEL-5 11.4 µM | SN12C 14 µM | SNB-19 18.2 µM | TK-10 14.3 µM

CC/C(=C(\c1ccccc1)c1ccc(OCC[N+](C)(C)C)cc1)c1ccccc1 [TAMOXIFEN METHYL IODIDE]
inactive: HCC 2998 17.1 µM | HOP-62 32.4 µM | HT-29 14.6 µM | KM12 13.3 µM | MOLT-4 17.7 µM | NCI-H460 17.1 µM | OVCAR-4 13 µM | OVCAR-8 15.3 µM | RPMI-8226 9.29 µM | SF-295 16.9 µM | SK-MEL-2 13.8 µM | SK-MEL-5 4.59 µM | SN12C 9.16 µM | SNB-19 17.4 µM

Cc1ccc2c(c1)-c1c3c(nn1C)-c1ccccc1SC3O2 (stereo not given)
inactive: HCC 2998 34 µM | HOP-62 > 100 µM | HT-29 41.6 µM | KM12 38.6 µM | MOLT-4 26.1 µM | NCI-H460 65.8 µM | OVCAR-5 > 100 µM | OVCAR-8 39.6 µM | RPMI-8226 21.8 µM | SF-295 83.8 µM | SK-MEL-2 64.9 µM | TK-10 > 100 µM

CCN(CC)c1ccc(Cl)c2c1C(O)(C(C)C)C2(C)C (stereo not given)
inactive: HCC 2998 14.8 µM | HOP-62 23.7 µM | HT-29 11.8 µM | KM12 15.1 µM | MOLT-4 16.5 µM | NCI-H460 13.4 µM | OVCAR-4 19 µM | OVCAR-5 16.6 µM | OVCAR-8 18.9 µM | RPMI-8226 13.2 µM | SF-295 18.9 µM | SK-MEL-2 14.1 µM | SK-MEL-5 15.4 µM | SN12C 16.7 µM | SNB-19 15.2 µM | TK-10 16.6 µM

CC(C)(C)C1=CC(=C(P(=O)(O)O)P(=O)(O)O)C=C(C(C)(C)C)C1=O
inactive: HCC 2998 > 50 µM | HOP-62 > 50 µM | HT-29 > 50 µM | KM12 > 50 µM | MOLT-4 > 50 µM | NCI-H460 > 50 µM | OVCAR-4 > 50 µM | OVCAR-5 > 50 µM | OVCAR-8 > 50 µM | RPMI-8226 > 50 µM | SF-295 > 50 µM | SK-MEL-2 > 50 µM | SK-MEL-5 > 50 µM | SNB-19 > 50 µM | TK-10 > 50 µM
